Read-outs that look alike come from different tables or passages of the source.
Tested on: pdr5 ypt1^ts cells
Assay: microbe, parasite or virus in culture
Format: cell-based, yeast
Settings: for minimal effective concentration: Saccharomyces cerevisiae, read-out: ypt1-ts MRC (minimal rescue concentration); for optical density, ypt1-ts, 0.39: 0.39 μM compound; for optical density, ypt1-ts, 0.39 / optical density, ypt1-ts, 0.78 / optical density, ypt1-ts, 1.56 / optical density, ypt1-ts, 3.13 / optical density, ypt1-ts, 6.25 / optical density, ypt1-ts, 12.5 / optical density, ypt1-ts, 25: background (0 μM) 0.058; for optical density, ypt1-ts, 0.78: 0.78 μM compound; for optical density, ypt1-ts, 1.56: 1.56 μM compound; for optical density, ypt1-ts, 3.13: 3.13 μM compound; for optical density, ypt1-ts, 6.25: 6.25 μM compound; for optical density, ypt1-ts, 12.5: 12.5 μM compound; for optical density, ypt1-ts, 25: 25 μM compound
Description: The activity of the compounds as modulators of protein trafficking may be measured in the assays described herein that evaluate the ability of a compound to rescue an impairment in protein trafficking. For example, the yeast mutant cell line ypt1^ts can be used to identify compounds that rescue cells from the lethal phenotype of a mutant YPT1 allele (see, e.g., Examples and Schmitt et al. (1988) Cell 53:635-47). The activity may be measured, for example, in a whole yeast cell assay using 384-well screening protocol and an optical density measurement.
The yeast mutant cell line ypt1^ts suppresses, in a temperature dependent fashion, the dominant-lethal phenotype of a mutant YPT1 allele (Schmitt et al. (1988) Cell 53:635-47). ypt1^ts cells grow normally at temperatures up to 30° C., but are growth arrested at 37° C. (Id.).
A library of compounds (“The Spectrum Collection”) obtained from Microsource Discovery Systems, Inc. (Gaylordsville, Conn.) was screened to assess the ability of individual compounds to restore growth of ypt1^ts cells. Screening was carried out using ypt1^ts cells containing a mutation in the pdr5 gene (resulting in inactivation of a membrane efflux pump). The effect of the compounds was measured in pdr5 ypt1^ts cells cultured at 37° C.

[1] = Table 2, lowest concentration tested giving growth above the 0 μM background, 37° C.
[2] = Table 3, 3.13 uM compound, 37° C., background (0 uM) 0.077
[3] = Table 3, 12.5 uM compound, 37° C., background (0 uM) 0.077
[4] = Table 3, 50 uM compound, 37° C., background (0 uM) 0.077

Row | Structure (SMILES) | minimal effective concentration [1] [µM] | optical density, ypt1-ts, 0.39 (Table 2, 37° C.) | optical density, ypt1-ts, 0.78 (Table 2, 37° C.) | optical density, ypt1-ts, 1.56 (Table 2, 37° C.) | optical density, ypt1-ts, 3.13 (Table 2, 37° C.) | optical density, ypt1-ts, 6.25 (Table 2, 37° C.) | optical density, ypt1-ts, 12.5 (Table 2, 37° C.) | optical density, ypt1-ts, 25 (Table 2, 37° C.) | optical density, 3.13 uM [2] | optical density, 12.5 uM [3] | optical density, 50 uM [4] | other results
1 | O=C(/C=C/c1ccccc1)c1ccc(O)cc1 [4'- HYDROXYCHALCONE] | 12.5 | 0.088 | 0.073 | 0.079 | 0.093 | 0.1 | 0.329 | 0.552 |  |  |  | 
2 | COc1ccc(-c2cc(=O)c3ccccc3o2)cc1 [4′-METHOXYFLAVONE] | 1.56 | 0.111 | 0.077 | 0.136 | 0.474 | 0.567 | 0.556 | 0.557 |  |  |  | 
3 | COc1ccccc1-c1cc(=O)c2c(OC)cccc2o1 [5,2′- DIMETHOXY- FLAVONE] |  |  |  |  |  |  |  |  | 0.088 | 0.256 | 0.383 | 
4 | C=C1CCC2C(CC2(C)C)C(=C)CC/C1=N/O (centres unmarked) [5- HYDROXYIMINOISOC ARYOPHYLLENE] | 12.5 | 0.096 | 0.077 | 0.087 | 0.108 | 0.117 | 0.131 | 0.153 |  |  |  | 
5 | C[C@]12CCC(=O)C[C@@H]1CC[C@@H]1[C@@H]2CC[C@]2(C)C(=O)CC[C@@H]12 [5alpha- ANDROSTAN- 3,17-DIONE] |  |  |  |  |  |  |  |  |  |  |  | optical density, 3.13 uM: 0.11; optical density, 12.5 uM: 0.16; optical density, 50 uM: 0.319
6 | C=C1C([C@@]2(C)[C@@H](C)CC(=O)C(C)(C)[C@@H]2C(OC(C)=O)C(=O)OC)CC[C@@]2(C)[C@H](c3ccoc3)OC(=O)C[C@]12O (some centres unmarked) [6-ACETOXY- […] METHYL ESTER] |  |  |  |  |  |  |  |  | 0.131 | 0.364 | 0.489 | 
7 | C=C1C2CC[C@@]3(C)[C@H](c4ccoc4)OC(=O)C[C@]13O[C@H]1CC(=O)C(C)(C)[C@H](C(O)C(=O)OC)[C@@]21C (some centres unmarked) [6-HYDROXY- […] METHYL ESTER] |  |  |  |  |  |  |  |  | 0.232 | 0.561 | 0.626 | 
8 | COc1ccc2c(=O)cc(-c3ccccc3OC)oc2c1 [7,2′- DIMETHOXY- FLAVONE] |  |  |  |  |  |  |  |  | 0.098 | 0.156 | 0.3 | 
9 | COc1ccc(-c2coc3cc(OC)ccc3c2=O)cc1 [7,4′- DIMETH- OXYISO- FLAVONE] |  |  |  |  |  |  |  |  | 0.222 | 0.551 | 0.513 | 
10 | CC1(C)C(=O)C=C[C@@]2(C)C1CC(=O)[C@@]1(C)C3=CC(=O)O[C@@H](c4ccoc4)[C@]3(C)CCC12 (some centres unmarked) [7-DEACETOXY- 7-OXODEOXY- GEDUNIN] |  |  |  |  |  |  |  |  | 0.335 | 0.604 | 0.67 | 
11 | CC1(C)C(=O)C=C[C@]2(C)[C@H]3CC[C@@]4(C)[C@H](c5ccoc5)OC(=O)[C@H]5O[C@]54[C@]3(C)C=C[C@@H]12 [7-DESACETOXY-6,7- DEHYDROGEDUNIN] | 12.5 | 0.094 | 0.071 | 0.074 | 0.093 | 0.099 | 0.171 | 0.308 |  |  |  | 
12 | COc1ccc(-c2coc3c(OC)c(O)ccc3c2=O)cc1 [7-HYDROXY- 8,4′-DIMETH- OXYISO- FLAVONE] |  |  |  |  |  |  |  |  | 0.121 | 0.151 | 0.398 | 
13 | COc1ccccc1-c1cc(=O)c2cccc(OC)c2o1 [8,2′- DIMETHOXY- FLAVONE] |  |  |  |  |  |  |  |  | 0.083 | 0.234 | 0.674 | 
14 | COC(=O)C[C@H]1C(C)(C)C2(O)OC34CC2C(=O)[C@]1(C)C3CC[C@]1(C)C4=CC(=O)O[C@H]1c1ccoc1 (stereo partly drawn) [8beta- HYDROXY- CARAPIN, 3,8- HEMIACETAL] |  |  |  |  |  |  |  |  | 0.151 | 0.383 | 0.486 | 
15 | Cc1ccc2c(c1)CC[C@H]1CC(=O)CC[C@]21C [13-METHYL- 4,4-BISNOR- 8,11,13- PODO- […]- 3-ONE] |  |  |  |  |  |  |  |  | 0.082 | 0.152 | 0.424 | 
16 | COc1cccc2c1CCC1CC(=O)CC[C@]21C (some centres unmarked) [14-METHOXY-4,4- BISNOR-8,11,13- PODOCARPATRIEN-3- ONE] | 12.5 | 0.088 | 0.074 | 0.075 | 0.088 | 0.096 | 0.191 | 0.48 |  |  |  | 
17 | COC(=O)C[C@H]1C(C)(C)C(=O)[C@@H]2CC3=C4CC(OC)O[C@@H](c5ccoc5)[C@]4(C)CCC3[C@@]1(C)C2=O (some centres unmarked) [16-DEOXO- MEXICANOLIDE 16-METHYL ETHER] |  |  |  |  |  |  |  |  | 0.3 | 0.528 | 0.55 | 
18 | CC(C)c1ccc2c(c1)CCC1[C@](C)(CN)CCC[C@]21C.O=S(=O)(O)O (some centres unmarked) [18-AMINO ABIETA- 8,11,13- TRIENE SULFATE] |  |  |  |  |  |  |  |  | 0.055 | 0.06 | 0.378 | 
19 | COc1ccc2cc([C@H](C)C(=O)O)ccc2c1 [(+)NAPROXEN, reference compound] |  |  |  |  |  |  |  |  |  |  |  | minimal effective concentration: 25 µM
20 | CC(C)C1=CC2=CC[C@H]3[C@](C)(CO)CCC[C@]3(C)C2CC1 (some centres unmarked) [ABIETANOL] |  |  |  |  |  |  |  |  | 0.102 | 0.274 | 0.29 | 
21 | CC(C)C1=CC2=CCC3[C@](C)(CCC[C@]3(C)C(=O)O)C2CC1 (some centres unmarked) [ABIETIC ACID] | 3.13 | 0.107 | 0.079 | 0.1 | 0.165 | 0.173 | 0.528 | 0.61 |  |  |  | 
22 | CC(=O)Nc1ccc(OC(=O)c2ccccc2O)cc1 [ACETAMINOSALOL, reference compound] | 12.5 | 0.085 | 0.078 | 0.083 | 0.085 | 0.103 | 0.127 | 0.198 |  |  |  | 
23 | CC(=O)OCC[N+](C)(C)C.[Cl-] [ACETYLCHOLINE, reference compound] | 6.25 | 0.104 | 0.087 | 0.085 | 0.113 | 0.164 | 0.27 | 0.352 |  |  |  | 
24 | C[n+]1c2cc(N)ccc2cc2ccc(N)cc21.[Cl-] [ACRIFLAV- INIUM HYDRO- CHLORIDE, reference compound] |  |  |  |  |  |  |  |  | 0.126 | 0.229 | 0.151 | 
